Experimental data as given in PubChem BioAssay AID192 (DTP/NCI, 2004).
Where “and” joins values, the source holds several entries; their conditions need not be identical. Equal values may be shown once. Inconclusive results and toxic doses are left out. Rule for the calls: active = survival T/C of 150% or more; inactive = T/C below 125% in these data.

System: BDF1 mice, B16 melanoma ip, median survival T/C
Assay: NCI In Vivo Anticancer Drug Screen. Data for tumor model B16 Melanoma (intraperitoneal) in B6D2F1 (BDF1) mice
Conditions: endpoint: median survival time, higher = longer survival
In short: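 Vehicle-treated animals serve as the reference (C); treated animals (T) are scored for survival or tumor size after tumor transplantation.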

[1] = dose: 50.0 mg/kg/injection, schedule: Q01DX009 (ip), vehicle: saline with Tween-80
[2] = dose: 100.0 mg/kg/injection, schedule: Q01DX009 (ip), vehicle: saline with Tween-80
[3] = dose: 200.0 mg/kg/injection, schedule: Q01DX009 (ip), vehicle: saline with Tween-80
[4] = dose: 100.0 mg/kg/injection, schedule: Q01DX009 (ip), vehicle: Klucel (hydroxypropylcellulose) (HPC)
[5] = dose: 200.0 mg/kg/injection, schedule: Q01DX009 (ip), vehicle: Klucel (hydroxypropylcellulose) (HPC)
[6] = dose: 6.25 mg/kg/injection, schedule: Q01DX009 (ip), vehicle: Klucel (hydroxypropylcellulose) (HPC)
[7] = dose: 12.5 mg/kg/injection, schedule: Q01DX009 (ip), vehicle: Klucel (hydroxypropylcellulose) (HPC)
[8] = dose: 25.0 mg/kg/injection, schedule: Q01DX009 (ip), vehicle: Klucel (hydroxypropylcellulose) (HPC)
[9] = dose: 50.0 mg/kg/injection, schedule: Q01DX009 (ip), vehicle: Klucel (hydroxypropylcellulose) (HPC)
[10] = dose: 3.13 mg/kg/injection, schedule: Q01DX009 (ip), vehicle: saline
[11] = dose: 6.25 mg/kg/injection, schedule: Q01DX009 (ip), vehicle: saline
[12] = dose: 12.5 mg/kg/injection, schedule: Q01DX009 (ip), vehicle: saline
[13] = dose: 25.0 mg/kg/injection, schedule: Q04DX003 (ip), vehicle: Klucel (hydroxypropylcellulose) (HPC)
[14] = dose: 25.0 mg/kg/injection, schedule: Q01DX009 (ip), vehicle: saline with Tween-80
[15] = dose: 50.0 mg/kg/injection, schedule: Q01DX009 (ip), vehicle: saline
[16] = dose: 3.12 mg/kg/injection, schedule: Q01DX009 (ip), vehicle: saline
[17] = dose: 400.0 mg/kg/injection, schedule: Q01DX009 (ip), vehicle: Klucel (hydroxypropylcellulose) (HPC)
[18] = dose: 100.0 mg/kg/injection, schedule: Q04DX003 (ip), vehicle: Klucel (hydroxypropylcellulose) (HPC)
[19] = dose: 25.0 mg/kg/injection, schedule: Q01DX009 (ip), vehicle: saline

Measured: T/C

OC(CCCCl)CC(O)(C(F)(F)F)C(F)(F)F (configuration not stated)
inactive: [1] 111 % of control | dose: 50.0 mg/kg/injection, schedule: Q04DX003 (ip), vehicle: saline with Tween-80 112 % of control | [2] 102 % of control | dose: 100.0 mg/kg/injection, schedule: Q04DX003 (ip), vehicle: saline with Tween-80 115 % of control | [3] 108 % of control | dose: 200.0 mg/kg/injection, schedule: Q04DX003 (ip), vehicle: saline with Tween-80 120 % of control

Nc1ccccc1SC1CC(=O)N(c2ccccc2Cl)C1=O (configuration not stated)
inactive: [4] 94 % of control | [5] 86 % of control

Cc1ccc(C(C)(C)C[P+](C)(c2ccccc2)c2ccccc2)cc1
inactive: [6] 90 % of control | [7] 94 % of control | [8] 99 % of control | [9] 93 % of control

BrCCC[P+](c1ccccc1)(c1ccccc1)c1ccccc1
inactive: dose: 3.13 mg/kg/injection, schedule: Q01DX009 (ip), vehicle: Klucel (hydroxypropylcellulose) (HPC) 106 % of control | [10] 105 % of control | dose: 3.13 mg/kg/injection, schedule: Q04DX003 (ip), vehicle: saline 89 % of control | [6] 103 % of control | [11] 100 % of control | dose: 6.25 mg/kg/injection, schedule: Q04DX003 (ip), vehicle: saline 89 % of control | [7] 106 % of control | [12] 107 % of control | dose: 12.5 mg/kg/injection, schedule: Q04DX003 (ip), vehicle: saline 89 % of control | [8] 90 % of control | [13] 90 % of control

C(COCCOCC1CO1)OCCOCC1CO1 (configuration not stated)
inactive: dose: 12.5 mg/kg/injection, schedule: Q01DX009 (ip), vehicle: saline with Tween-80 101 % of control | [14] 105 % of control | [1] 103 % of control | [15] 107 % of control | [2] 109 % of control | dose: 100.0 mg/kg/injection, schedule: Q01DX009 (ip), vehicle: saline 108 % of control and 110 % of control | [3] 99 % of control | dose: 200.0 mg/kg/injection, schedule: Q01DX009 (ip), vehicle: saline 86 % of control

CC1(C)N=C(N)N=C(N)N1c1ccc(F)c(C(F)(F)F)c1
inactive: [16] 96 % of control | [11] 118 % of control | dose: 12.0 mg/kg/injection, schedule: Q01DX009 (ip), vehicle: saline 120 % of control

Cc1c(CNc2ccc(C(=O)NC(CC(=O)O)CC(=O)O)cc2)ccc2nc(N)nc(N)c12
inactive: dose: 0.05 mg/kg/injection, schedule: Q01DX009 (ip), vehicle: saline 111 % of control | dose: 0.1 mg/kg/injection, schedule: Q01DX009 (ip), vehicle: saline 111 % of control | dose: 0.12 mg/kg/injection, schedule: Q01DX009 (ip), vehicle: saline with Tween-80 102 % of control | dose: 0.2 mg/kg/injection, schedule: Q01DX009 (ip), vehicle: saline 116 % of control | dose: 0.25 mg/kg/injection, schedule: Q01DX009 (ip), vehicle: saline with Tween-80 91 % of control | dose: 0.37 mg/kg/injection, schedule: Q01DX009 (ip), vehicle: saline 100 % of control

O=C(Nc1ccccc1)OCCOc1ccc(Cl)cc1Cl
inactive: [4] 96 % of control | [5] 114 % of control | [17] 110 % of control

CCC(=O)/C=C/C1C(C)=CCCC1(C)C (configuration not stated)
inactive: [1] 104 % of control | [2] 102 % of control

c1ccc(CSSCc2ccccc2)cc1
inactive: [4] 113 % of control | [5] 114 % of control | [17] 108 % of control

CCCCCCCCCCCCCCCCCCN(C)C
inactive: [6] 104 % of control | [7] 107 % of control | [8] 89 % of control and 101 % of control

CCOC12c3cc(OC)ccc3N(S(=O)(=O)c3ccc(C)cc3)CC1C2(Br)Br (configuration not stated)
inactive: [9] 103 % of control | [4] 93 % of control | [5] 89 % of control

CC(C)=CCC/C(C)=C\CCl
inactive: [14] 105 % of control | [1] 101 % of control

Cc1cc(C)c(NC(=O)Nc2ccccc2C)c(C)c1
inactive: [13] 102 % of control | dose: 50.0 mg/kg/injection, schedule: Q04DX003 (ip), vehicle: Klucel (hydroxypropylcellulose) (HPC) 97 % of control | [18] 90 % of control

CCCCCCCCCCCCCCCCCCOCC(COP(=O)([O-])OCC[N+](C)(C)C)OC (configuration not stated)
inactive: [16] 91 % of control | [11] 95 % of control | [12] 92 % of control | [19] 87 % of control

O=C1C(Cl)=C(Cl)C(=O)c2ccccc21
inactive: dose: 5.0 mg/kg/injection, schedule: Q01DX009 (ip), vehicle: saline with Tween-80 87 % of control | dose: 10.0 mg/kg/injection, schedule: Q01DX009 (ip), vehicle: saline with Tween-80 87 % of control

CN(CCN(C)Cc1ccccc1)Cc1ccccc1
inactive: [19] 100 % of control | [15] 92 % of control

CC[n+]1ccc(Nc2ccc(/C=C/c3ccc4cc(Nc5cc[n+](CC)cc5)ccc4[n+]3CC)cc2)cc1
inactive: dose: 2.5 mg/kg/injection, schedule: Q01DX009 (ip), vehicle: saline 117 % of control | dose: 5.0 mg/kg/injection, schedule: Q01DX009 (ip), vehicle: saline 109 % of control | dose: 10.0 mg/kg/injection, schedule: Q01DX009 (ip), vehicle: saline 86 % of control

CC(=O)CC(=O)Nc1ncccc1C
inactive: dose: 25.0 mg/kg/injection, schedule: Q01DX009 (ip), vehicle: carboxymethylcellulose (CMC) 111 % of control | dose: 50.0 mg/kg/injection, schedule: Q01DX009 (ip), vehicle: carboxymethylcellulose (CMC) 106 % of control | dose: 100.0 mg/kg/injection, schedule: Q01DX009 (ip), vehicle: carboxymethylcellulose (CMC) 107 % of control

CC1CCCCN1CCNc1ccc(CO)c2sc3ccccc3c(=O)c12 (configuration not stated)
inactive: [14] 112 % of control | [1] 124 % of control | [2] 121 % of control

C[n+]1c2cc(N)ccc2cc2ccc(N)cc21
inactive: dose: 1.56 mg/kg/injection, schedule: Q01DX009 (ip), vehicle: saline 107 % of control | [10] 117 % of control | [11] 115 % of control | [12] 111 % of control

c1ccc2c(CNC3CCCCC3)c[nH]c2c1
inactive: [8] 89 % of control | [9] 97 % of control | [18] 92 % of control

O=C1C=CC2(CCC23C=CC(=O)O3)O1 (configuration not stated)
inactive: dose: 7.5 mg/kg/injection, schedule: Q01DX009 (ip), vehicle: Klucel (hydroxypropylcellulose) (HPC) 87 % of control | dose: 15.0 mg/kg/injection, schedule: Q01DX009 (ip), vehicle: Klucel (hydroxypropylcellulose) (HPC) 93 % of control | dose: 30.0 mg/kg/injection, schedule: Q01DX009 (ip), vehicle: Klucel (hydroxypropylcellulose) (HPC) 92 % of control

CC1CCC2C1C1C(CCC2(C)O)C1(C)C (configuration not stated)
inactive: dose: 75.0 mg/kg/injection, schedule: Q01DX009 (ip), vehicle: Klucel (hydroxypropylcellulose) (HPC) 97 % of control | dose: 150.0 mg/kg/injection, schedule: Q01DX009 (ip), vehicle: Klucel (hydroxypropylcellulose) (HPC) 94 % of control | dose: 300.0 mg/kg/injection, schedule: Q01DX009 (ip), vehicle: Klucel (hydroxypropylcellulose) (HPC) 97 % of control

CN1CCCCC1CCN1c2ccccc2Sc2ccc(Br)cc21 (configuration not stated)
inactive: dose: 0.78 mg/kg/injection, schedule: Q01DX009 (ip), vehicle: saline 109 % of control | [16] 105 % of control | [11] 107 % of control | [12] 96 % of control

CCN1C=C/C(=C\C=C/c2cc[n+](CC)c3ccccc23)c2ccccc21
inactive: dose: 6.0 micrograms/kg/injection, schedule: Q01DX009 (ip), vehicle: saline 106 % of control | dose: 12.0 micrograms/kg/injection, schedule: Q01DX009 (ip), vehicle: saline 110 % of control | dose: 25.0 micrograms/kg/injection, schedule: Q01DX009 (ip), vehicle: saline 115 % of control | dose: 50.0 micrograms/kg/injection, schedule: Q01DX009 (ip), vehicle: saline 106 % of control
